Results reported in the NIST ThermoML archive (doi:10.1021/je700445y).
Numbers after ± are expanded uncertainties.

Experiments:
[1] = Liquid; for mass density: 293.15 K, 101.33 kPa; for vapor or sublimation pressure: Ebulliometric method (Recirculating still)
[2] = refractive index (Na D-line) (dimensionless); details: 293.15 K; 101.33 kPa; Liquid; Standard Abbe refractometry

| Compound | mass density [1] | vapor or sublimation pressure ([1]; 443.8 K) | refractive index [2] | vapor or sublimation pressure ([1]; 341.8 K) | vapor or sublimation pressure ([1]; 398.96 K) |
| --- | --- | --- | --- | --- | --- |
| C=CCCCCCCCC [1-decene] | 741 ± 1 kg/m3 | 101.33 ± 0.52 kPa | 1.4214 ± 0.00073 |  |  |
| CCCCCC [hexane] | 660 ± 2 kg/m3 |  | 1.37486 ± 0.00075 | 101.33 ± 0.53 kPa |  |
| CCCCCCCC [octane] | 708 ± 1 kg/m3 |  | 1.3965 ± 0.00075 |  | 101.33 ± 0.53 kPa |
